Assay results published in patent US10792483B2, “Tumor vaccination” (XAX KFT., priority 2012, dated 2020).
Entries after “also recorded” stand apart in the source; their conditions may differ.

Legend:
[1] = tested on: melanoma with lung metastases; test: Case report, dog treated with oncothermia and low dose Carboplatine (Example 11); format: in vivo, Cocker spaniel; details: low dose Carboplatine 2 times (100 mg/m^2) + oncothermia 10 times in 2 weeks on the chest
Protocol: Case No.:11461, Cocker spaniel, 8 years, castrated male,
Diagnosis: melanoma with lung metastases. The primary tumor was situated on the right hind leg and was removed surgically. 5 months later metastases in the lung occurred, at that time we started the treatment.
Oncothermia (10 times in a 2 weeks period)
Low dose Carboplatine 2 times, (100 mg/m^2)
The site of the OTM treatment was on the chest, exactly at the line of the heart.

[2] = tested on: non small cells lung cancer; test: Case report, patient treated with radiotherapy, oncothermia and GM-CSF (Example 13); format: in vivo, human; details: for Response of far-distant metastases (abscopal effect, PET scan): GM-CSF (Leukine) subcutaneously with oncothermia (and radiotherapy) of the primary tumor only; for Response of the primary (treated) tumor: GM-CSF (Leukine) with oncothermia (and radiotherapy)
Excerpt: A patient was diagnosed with unclassifiable non small cells lung cancer. The classification of the tumor at first diagnosis was cT2N2M0, stage IIIB. Despite of the advanced case the patient refused any treatment. Five months later, they visited outpatient department of complementary and alternative medicine with complaints of hemoptysis and dyspnea on exertion gradually worsened 4 weeks before. They were referred to medical oncology department and admitted for re-evaluation.
The patient had no co-morbidities and no medical history. However, they still refused chemotherapy and together with their family members requested other possible treatment options.
In these circumstances we made radiotherapy in combination with oncothermia and GM-CSF expecting to induce abscopal effect. Local field radiation therapy to lung mass was delivered at a dose of […] in 28 daily fractions for 5-6 treatments in a week. It was followed by oncothermia after radiation 3 times a week. After 2 weeks of oncothermia treatment, GM-CSF (250 microgram, Leukine®, USA) was administered subcutaneously once a day for 10 days. GM-CSF in dose 125 μg/m^2 was given subcutaneously for 14 days after one week of radiotherapy. The result supported that using GM-CSF was feasible and its effect enhanced the immune therapy.

[3] = tested on: Melanoma; details: phase III, 185 patients; cited from earlier work

## N.N.O=C([O-])C1(C(=O)[O-])CCC1.[Pt+2] [Carboplatine]
[1]
  Tumor regression (CT image series): Significant tumor regression was observed not only at the site of the treatment, but outside of the directly OTM treated area

## Leukine®: sargramostim; recombinant granulocyte macrophage colony-stimulating factor
[2]
  Response of far-distant metastases (abscopal effect, PET scan): beneficial effect also on the far-distances metastases, which disappear; also recorded: the metastases disappeared
  Response of the primary (treated) tumor: started to shrink
[2]; listed as GM-CSF
  Response of far-distant metastases (abscopal effect, PET scan): nearly complete remission in multiple metastatic lymph nodes; also recorded: successful abscopal effect
  Response of the primary (treated) tumor: shrinking
[2]; radiotherapy + oncothermia + GM-CSF, end of treatment period
  Adverse effects: no severe adverse effects except grade 1 fatigue

## gp100:209-217(210M): listed under vaccines with peptides (IMDQVPFSV; UniProt P40967 209-217, looked up, variant T210M)
[3]
  RR and PES: Significant improve-
